# Assay results published in PubChem BioAssay AID732 (Emory University Molecular Libraries Screening Center, 2007).
# Where “and” joins values, the source holds several entries; their conditions need not be identical. Identical values can stand only once. Calls of active or inactive are those of the source. The rule behind the calls is not given here.
# System: in vivo angiogenesis, blood vessel count
# Experiment: angiogenesis inhibition in living animals, in vivo study, HTS (AID 732);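 note: zebrafish embryos dosed at one day post fertilization; 0% = reference inhibitor and 100% = plate mean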
# Conditions: hits give low values;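 tested at 30 µM in the well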
row,Structure (SMILES),vessel count % control
1,C[N+]1(C)CCc2cc3c(cc2[C@H]1[C@@H]1OC(=O)c2c1ccc1c2OCO1)OCO3,85.4% (inactive)
2,NC(=NCc1ccc(Cl)c(Cl)c1)NC(=O)c1nc(Cl)c(N)nc1N,108% (inactive)
3,CSc1ccc2c(c1)C(N1CCN(C)CC1)Cc1ccccc1S2 (stereo not given),60.6% (inactive)
4,CNC(=O)c1cc2c(cn1)[nH]c1ccccc12,101% (inactive)
5,O=C(O)CCCC[C@@H]1CCSS1,100% (inactive)
6,NC(=NCCC[C@H](N)C(=O)O)N[N+](=O)[O-],96.2% (inactive)
7,O=C(O)[C@@H]1CCN1,84.3% (inactive)
8,CN(C)CCC=C1c2ccccc2CCc2ccccc21,91.2% (inactive)
9,CCCCC/C=C\CC(O)/C=C/c1cccc(CC(O)CCCCO)n1 (stereo not given),100% (inactive)
10,CNc1cc(NS(=O)(=O)c2ccc(N)cc2)nc(NC)n1,81.3% (inactive)
11,CN1CCc2ccccc2Cc2[nH]c3ccccc3c2CC1,66.8% (inactive)
12,Cc1c2ccncc2c(C)c2c1[nH]c1ccccc12,110% (inactive)
13,O=c1[nH]c(=O)n([C@H]2C[C@H](O)[C@@H](CO)O2)cc1/C=C/Br,93% (inactive)
14,O=C1NCC2(CCN(CCc3ccccc3)CC2)O1,110% (inactive)
15,O=Nc1c(-c2c(O)[nH]c3ccccc23)[nH]c2ccccc12,15.6%
16,CN1CCC(=C2c3ccccc3C=Cc3ccccc32)CC1,0% (inactive)
17,NC(=O)c1cc(N2CC2)c([N+](=O)[O-])cc1[N+](=O)[O-],107% (inactive)
18,NCC1OC(O[C@@H]2[C@H](O)C(OC3C(O)C(N)CC(N)C3OC3OC(CO)C(O)C(O)C3N)O[C@@H]2CO)C(N)C(O)C1O (stereo not given in full),116% (inactive)
19,COc1cc2c(cc1OC)[C@@H](c1ccccc1)CN(C)CC2,91.5% (inactive)
20,CC(C)NC[C@H](O)c1ccc(O)c(O)c1,98.1% (inactive) and 72.7% (inactive)
21,C[C@]12CC[C@H]3[C@@H](CCC4C[C@H](O)CC[C@@]43C)[C@@H]1CC[C@@H]2O (stereo not given in full),106% (inactive)
22,COc1ccccc1N1CCN(CCCNc2cc(=O)n(C)c(=O)n2C)CC1,111% (inactive)
23,COc1ccc(C(=O)NCc2cccnc2)cc1C(=O)NCc1cccnc1,109% (inactive)
24,CN(C)CCCN1c2ccccc2CCc2ccc(Cl)cc21,85.2% (inactive)
25,Cc1ccc(S(=O)(=O)N[C@@H](Cc2ccccc2)C(=O)CCl)cc1,97.1% (inactive)

row,Structure (SMILES),vessel count % control
1,COc1ccc([C@@H]2Sc3ccccc3N(CCN(C)C)C(=O)[C@@H]2OC(C)=O)cc1,107% (inactive)
2,COc1ccc2c(c1)[C@@]13CCCC[C@H]1[C@@H](C2)NCC3,78.3% (inactive)
3,Cc1ccc(O)c(N=Nc2ccccc2)n1,112% (inactive)
4,CCN1/C(=C/C(C)=O)Sc2ccc(OC)cc21,98% (inactive)
5,CCCn1c(=O)c2[nH]c(C3CCCC3)nc2n(CCCOC(=O)c2ccc(S(=O)(=O)F)cc2)c1=O,117% (inactive)
6,CN1CCN(C2=Nc3ccccc3Oc3ccc(Cl)cc32)CC1,123% (inactive)
7,COc1ccc(C2CNC(=O)C2)cc1OC1CCCC1 (stereo not given),96.6% (inactive)
8,COc1cc2nc(N3CCN(C(=O)C4CCCO4)CC3)nc(N)c2cc1OC (stereo not given),83.3% (inactive)
9,O=C(O)[C@H]1NCCC[C@H]1C(=O)O,121% (inactive)
10,NCCNS(=O)(=O)c1cccc2cnccc12,98.2% (inactive)
11,O=C1C(c2c(O)[nH]c3ccc([N+](=O)[O-])cc23)=Nc2ccc(Br)cc21,101% (inactive)
12,CN(C)CCN(Cc1cccs1)c1ccccn1,110% (inactive)
13,O=C1C(c2c(O)[nH]c3c(Cl)cc(Cl)cc23)=Nc2ccccc21,60.2% (inactive)
14,COC(=O)C(N)Cc1ccc(Cl)cc1 (stereo not given),82.4% (inactive)
15,CC12NC(Cc3ccccc31)c1ccccc12 (stereo not given),76.2% (inactive)
16,CCn1cc(C(=O)O)c(=O)c2cc(F)c(N3CCNC(C)C3)c(F)c21 (stereo not given),89.7% (inactive)
17,CCN(CC)CCNC(=O)c1cc(S(C)(=O)=O)ccc1OC,68.7% (inactive)
18,COC(=O)[C@H]1[C@H]2C[C@H]3c4[nH]c5ccccc5c4CCN3C[C@H]2CC[C@@H]1O,110% (inactive)
19,O=C1Nc2ccc(I)cc2/C1=C/c1cc(Br)c(O)c(Br)c1,69.8% (inactive)
20,O=C1C2C=CC=CC2=NC(=S)N1CCN1CCC(=C(c2ccc(F)cc2)c2ccc(F)cc2)CC1 (stereo not given),78.2% (inactive)
21,Clc1ccc(N2CC3CCC(C2)N3)nn1,106% (inactive)
22,CC1=C(CC(=O)O)c2cc(F)ccc2/C1=C\c1ccc(S(C)(=O)=O)cc1,112% (inactive)
23,C[C@@H](NC(=O)/C(C#N)=C/c1ccc(O)c(O)c1)c1ccccc1,128% (inactive)
24,Nc1ccn([C@H]2CC[C@@H](CO)O2)c(=O)n1,103% (inactive)
25,Cc1[nH]c2ccc(O)cc2c1CCN,87% (inactive)

row,Structure (SMILES),vessel count % control
1,CCCCNC(=O)NS(=O)(=O)c1ccc(C)cc1,87.6% (inactive)
2,Cn1ccc2cc3c(cc21)CCN3C(=O)Nc1cccnc1,88% (inactive)
3,CC(C)NCC(O)COc1cccc2[nH]ccc12 (stereo not given),90.8% (inactive)
4,C=CCN1CCc2cc(O)c(O)cc2C(c2ccccc2)C1 (stereo not given),114% (inactive)
5,NS(=O)(=O)c1cc2c(cc1Cl)NC(C1CC3C=CC1C3)NS2(=O)=O (stereo not given),107% (inactive)
6,CC(Cc1ccc(O)cc1)NCC(O)c1cc(O)cc(O)c1 (stereo not given),114% (inactive)
7,COC(=O)Nc1nc2ccc(C(=O)c3cccs3)cc2[nH]1,150% (inactive)
8,Oc1cc2c(cc1O)C(c1ccccc1)CNCC2 (stereo not given),85.1% (inactive)
9,CC(C)(C(=O)O)c1ccc(C(O)CCCN2CCC(C(O)(c3ccccc3)c3ccccc3)CC2)cc1 (stereo not given),116% (inactive)
10,Cc1cc(C(C)(C)C)cc(C)c1CC1=NCCN1,101% (inactive)
11,CNc1ncnc2c1ncn2[C@@H]1O[C@H](CO)[C@H](O)C1O (stereo not given in full),95.4% (inactive)
12,Clc1ccc(C(c2ccc(Cl)cc2)n2cc[n+](CC(OCc3ccc(Cl)cc3Cl)c3ccc(Cl)cc3Cl)c2)cc1 (stereo not given),0% (inactive)
13,CC(C)(C)c1ccc(C(O)CCCN2CCC(C(O)(c3ccccc3)c3ccccc3)CC2)cc1 (stereo not given),99.8% (inactive)
14,O=C(O)c1ccccc1Nc1cccc(OCc2ccc3ccccc3n2)c1,85.3% (inactive)
15,C=CC(N)CCC(=O)O (stereo not given),85.7% (inactive)
16,COCCOC(=O)C1=C(C)NC(C)=C(C(=O)OC(C)C)C1c1cccc([N+](=O)[O-])c1 (stereo not given),95.6% (inactive)
17,Clc1cccc(Cl)c1NC1=NCCN1,121% (inactive)
18,Cn1c(=O)c2[nH]c(-c3ccccc3)nc2n(C)c1=O,117% (inactive)
19,OC[C@H]1O[C@@H](n2cnc3c(Nc4ccccc4)ncnc32)C(O)[C@H]1O (stereo not given in full),110% (inactive)
20,c1ccc2sc(C3(N4CCCCC4)CCCCC3)cc2c1,93.4% (inactive)
21,NCCc1ccc(O)cc1,90.2% (inactive)
22,CCCn1c(=O)[nH]c(=O)c2[nH]cnc21,97.5% (inactive)
23,Nc1nc2ccc(Cl)cc2c2nc(-c3ccco3)nn12,95.7% (inactive)
24,C/C(O)=C(\C#N)C(=O)Nc1cc(Br)ccc1Br,139% (inactive)
25,CCN(Cc1ccncc1)C(=O)C(CO)c1ccccc1 (stereo not given),114% (inactive)

row,Structure (SMILES),vessel count % control
1,C[Se]C[C@H](N)C(=O)O,103% (inactive)
2,c1cnc(N2CCN(Cc3ccc4c(c3)OCO4)CC2)nc1,106% (inactive)
3,CC(N)=NCCC[C@H](N)C(=O)O,134% (inactive)
4,NC(CCCCCP(=O)(O)O)C(=O)O (stereo not given),113% (inactive)
5,N[C@@H]1CONC1=O,90.5% (inactive)
6,C[C@]12CCC(=O)C=C1CC[C@@H]1[C@@H]2[C@@H](O)C[C@@]2(C)[C@H]1CC[C@]2(O)C(=O)COC(=O)CCC(=O)O,98.7% (inactive)
7,CC(C)(C)c1o[nH]c(=O)c1CC(N)C(=O)O (stereo not given),106% (inactive)
8,Cc1ccc(Cl)c(Nc2ccccc2C(=O)O)c1Cl,90.3% (inactive)
9,C[n+]1cc2c3c(ccc2c2ccc4cc5c(cc4c21)OCO5)OCO3,0% (inactive)
10,O=P1(N(CCCl)CCCl)NCCCO1 (stereo not given),105% (inactive)
11,CN(C)CCOC(=O)COc1ccc(Cl)cc1,102% (inactive)
12,CC(C)NCC(O)COc1ccc(CC(N)=O)cc1 (stereo not given),102% (inactive)
13,CCOC(=O)C1=C(C)NC(C)=C(C(=O)OC)C1c1cccc(Cl)c1Cl (stereo not given),56% (inactive)
14,CNCCC(Oc1ccccc1OC)c1ccccc1 (stereo not given),113% (inactive)
15,Fc1ccc(C(OCCN2CCN(CCCc3ccccc3)CC2)c2ccc(F)cc2)cc1,71.4% (inactive)
16,CNCC[C@H](Oc1ccc(C(F)(F)F)cc1)c1ccccc1,98.4% (inactive)
17,CCCC(C(=O)OCCN(CC)CC)(c1ccccc1)c1ccccc1,98% (inactive)
18,Brc1ccc([C@H]2CN3CCSC3=N2)cc1,94.7% (inactive)
19,Cn1c(=O)c2[nH]c(-c3ccc(S(=O)(=O)O)cc3)nc2n(C)c1=O,106% (inactive)
20,Oc1ccc2c3c1O[C@H]1[C@@H](O)CC[C@@]4(O)C(C2)N(CC2CCC2)CCC314 (stereo not given in full),81.2% (inactive)
21,NC(N)=N/N=C/c1c(Cl)cccc1Cl,112% (inactive)
22,CC(C)c1cccc(C(C)C)c1O,99.6% (inactive)
23,NC(=S)NCCCC(N)C(=O)O (stereo not given),119% (inactive)
24,C[N+]1(C)C2CCC1CC(OC(=O)C(CO)c1ccccc1)C2 (stereo not given),77.4% (inactive) and 108% (inactive)
25,CC(C)C[C@H](NC(=O)[C@@H](O)[C@H](N)Cc1ccccc1)C(=O)O,123% (inactive)
